According to patent publication US20080015146A1, “Dpp-IV Inhibitors” (SANTHERA PHARMACEUTICALS (DEUTSCHLAND) AG, priority 2004, published 2008):
Where a name gives a salt, the structure may show the parent alone.

biological target: T1, DPP-IV (Homo sapiens, UniProt P27487); test: Continuous fluorimetric assay of inhibition of DPP-IV peptidase activity (cleavage of Gly-Pro-AMC); format: biochemical; settings: substrate Gly-Pro-AMC 16 μM, pH 7.4, 25° C., 1% DMSO; assays carried out with human and porcine DPP-IV (comparable activities)
T1 construct: Soluble human DPP-IV lacking the transmembrane anchor (Gly31-Pro766); Pre-Pro-alpha-mating factor secretion leader (N, cleaved yes); made in house
Procedure: Inhibition of DPP-IV peptidase activity was monitored with a continuous fluorimetric assay. This assay is based on the cleavage of the substrate Gly-Pro-AMC (Bachem) by DPP-IV, releasing free AMC. The assay is carried out in 96-well microtiterplates. In a total volume of 100 μl compounds are preincubated with […] DPP-IV employing a buffer containing 10 mM Hepes, 150 mM NaCl, 0.005% Tween 20 (pH 7.4). […] The final concentration of DMSO is 1%. The inhibitory potential of the compounds were determined.
Soluble human DPP-IV lacking the transmembrane anchor (Gly31-Pro766) was expressed in a recombinant YEAST-strain as Pre-Pro-alpha-mating fusion. The secreted product (rhuDPP-IV-Gly31-Pro766) was purified from fermentation broth (>90% purity).

T1 sequence (P27487 31-766): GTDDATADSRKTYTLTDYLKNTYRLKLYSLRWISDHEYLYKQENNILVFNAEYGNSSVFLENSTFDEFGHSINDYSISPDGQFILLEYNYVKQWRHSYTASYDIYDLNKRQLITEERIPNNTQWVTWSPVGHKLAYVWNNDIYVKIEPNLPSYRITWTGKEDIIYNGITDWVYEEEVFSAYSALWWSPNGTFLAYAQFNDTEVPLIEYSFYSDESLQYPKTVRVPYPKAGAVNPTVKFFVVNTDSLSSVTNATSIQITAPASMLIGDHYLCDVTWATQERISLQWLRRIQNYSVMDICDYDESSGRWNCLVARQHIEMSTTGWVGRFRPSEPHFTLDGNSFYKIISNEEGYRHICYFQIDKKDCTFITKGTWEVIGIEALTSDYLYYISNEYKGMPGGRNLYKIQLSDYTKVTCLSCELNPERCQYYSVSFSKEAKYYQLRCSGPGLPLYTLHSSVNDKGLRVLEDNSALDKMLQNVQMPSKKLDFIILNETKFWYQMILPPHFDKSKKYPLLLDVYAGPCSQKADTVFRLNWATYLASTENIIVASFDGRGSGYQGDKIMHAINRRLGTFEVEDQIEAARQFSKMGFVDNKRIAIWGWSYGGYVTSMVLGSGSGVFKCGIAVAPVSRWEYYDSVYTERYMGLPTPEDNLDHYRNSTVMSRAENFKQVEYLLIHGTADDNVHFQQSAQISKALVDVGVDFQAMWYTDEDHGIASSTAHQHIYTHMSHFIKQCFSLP

| Compound | IC50 [nM] |
| --- | --- |
| N[C@@H](CC(=O)N1CCC[C@H]1c1nc(-c2cc(F)cc(F)c2)no1)Cc1ccccc1F [Example 7, (R)-3-Amino-1-{(S)-2-[3-(3,5-difluoro-phenyl)-[1,2,4]oxadiazol-5-yl)-pyrrolidin-1-yl}-4-(2-fluoro-phenyl)-butan-1-one trifluoracetic acid salt] | < 100 |
| CC(C)(C)n1cnc([C@@H]2CCCN2C(=O)C[C@H](N)Cc2cc(F)c(F)cc2F)n1 [Example 48] | < 100 |
| N[C@@H](CC(=O)N1CCC[C@H]1c1nc(-c2ccccc2)co1)Cc1ccccc1F [Example 45, formate salt] | < 100 |
| N[C@@H](CC(=O)N1CCC[C@H]1c1ncn(-c2ccccc2)n1)Cc1ccccc1F [Example 43, formate salt] | < 100 |

Further lines, results first:

| IC50 [nM] | Compound |
| --- | --- |
| < 100 | COCC(C)(C)c1noc([C@@H]2CCCN2C(=O)C[C@H](N)Cc2cc(F)c(F)cc2F)n1 [Example 24, (R)-3-Amino-1-{(S)-2-[3-(2-methoxy-1,1-dimethyl-ethyl)-[1,2,4]oxadiazol-5-yl]-pyrrolidin-1-yl}-4-(2,4,5-trifluoro-phenyl)-butan-1-one formate salt] |
| 101 to 1000 | N[C@@H](CC(=O)N1CCC[C@H]1c1ccn(-c2ccccc2)n1)Cc1ccccc1F [Example 47, formate salt] |
